Laboratory results from US20120225062A1 (priority 2011, published 2012).

Each compound was assayed against Pim 2 (Homo sapiens, UniProt Q9P1W9) (assay: Pim 2 AlphaScreen assay (high ATP)). Details: not given.
Chain of Pim 2 (Q9P1W9 whole entry): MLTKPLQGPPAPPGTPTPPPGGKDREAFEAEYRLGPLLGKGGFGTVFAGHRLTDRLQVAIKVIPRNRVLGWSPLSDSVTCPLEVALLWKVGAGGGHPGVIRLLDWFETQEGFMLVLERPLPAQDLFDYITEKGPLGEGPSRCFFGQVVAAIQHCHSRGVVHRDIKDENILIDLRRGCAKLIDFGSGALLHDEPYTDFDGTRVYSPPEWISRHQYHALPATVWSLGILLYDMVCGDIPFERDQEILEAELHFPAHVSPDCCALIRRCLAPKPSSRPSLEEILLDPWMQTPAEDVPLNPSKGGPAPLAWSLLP

Point of comparison: `C[C@@H]1C[C@H](N)C[C@H](c2ccncc2NC(=O)c2ccc(F)c(-c3c(F)cc(CN4CCCC4=O)cc3F)n2)C1` [Example 144, N-(4-((1R,3S,5S)-3-amino-5-methylcyclohexyl)pyridin-3-yl)-6-(2,6-difluoro-4-((2-oxopyrrolidin-1-yl)methyl)phenyl)-5-fluoropicolinamide], IC50 2.61 nM. Against it:
- C[C@H]1C[C@@H](c2ccncc2NC(=O)c2nc(-c3c(F)cc(OC4CCOCC4)cc3F)c(F)cc2N)C[C@@H](N)[C@@H]1O [Example 87, 3-amino-N-(4-((1R,3R,4R,5S)-3-amino-4-hydroxy-5-methylcyclohexyl)pyridin-3-yl)-6-(2,6-difluoro-4-(tetrahydro-2H-pyran-4-yloxy)phenyl)-5-fluoropicolinamide] — 1.8-fold lower, 1.46 nM
- C[C@H]1CN(c2ccncc2NC(=O)c2ccc(F)c(-c3c(F)ccc(OCCO)c3F)n2)C[C@@H](N)[C@@H]1O [Example 31, N-(4-((3R,4R,5S)-3-amino-4-hydroxy-5-methylpiperidin-1-yl)pyridin-3-yl)-6-(2,6-difluoro-3-(2-hydroxyethoxy)phenyl)-5-fluoropicolinamide] — 1.9-fold lower, 1.36 nM

These compounds were tested on KMS11 (human myeloma cell line) (assay: Cell Proliferation Assay (CellTiter-Glo, 3 days)). Details: KMS-11, 72 h, KMS11-luc cells.
Type: cell-based
Description: KMS11 (human myeloma cell line), were cultured in IMDM supplemented with 10% FBS, sodium pyruvate and antibiotics. Cells were plated in the same medium at a density of 2000 cells per well into 96 well tissue culture plates, with outside wells vacant, on the day of assay.
Test compounds supplied in DMSO were diluted into DMSO at 500 times the desired final concentrations before dilution into culture media to 2 times final concentrations. Equal volumes of 2× compounds were added to the cells in 96 well plates and incubated at 37° C. for 3 days.
After 3 days plates were equilibrated to room temperature and equal volume of CellTiter-Glow Reagent (Promega) was added to the culture wells. The plates were agitated briefly and luminescent signal was measured with luminometer.
Using the procedures of Cell Proliferation Assay, the EC50 concentrations of compounds of the examples were determined in KMS11 cells as shown in Table 4.

Point of comparison: `C[C@@H]1C[C@H](N)C[C@H](c2ccncc2NC(=O)c2ccc(F)c(-c3c(F)cc([C@H](C)O)cc3F)n2)C1` [Example 73, N-(4-((1R,3S,5S)-3-amino-5-methylcyclohexyl)pyridin-3-yl)-6-(2,6-difluoro-4-((S)-1-hydroxyethyl)phenyl)-5-fluoropicolinamide], EC50 21 nM. Against it:
- C[C@H]1C[C@@H](c2ccncc2NC(=O)c2nc(-c3c(F)cc(OC4CCOCC4)cc3F)c(F)cc2N)C[C@@H](N)[C@@H]1O [Example 87, 3-amino-N-(4-((1R,3R,4R,5S)-3-amino-4-hydroxy-5-methylcyclohexyl)pyridin-3-yl)-6-(2,6-difluoro-4-(tetrahydro-2H-pyran-4-yloxy)phenyl)-5-fluoropicolinamide] — within 1.5-fold, 31 nM
- C[C@H]1CN(c2ccncc2NC(=O)c2ccc(F)c(-c3c(F)ccc(OCCO)c3F)n2)C[C@@H](N)[C@@H]1O [Example 31, N-(4-((3R,4R,5S)-3-amino-4-hydroxy-5-methylpiperidin-1-yl)pyridin-3-yl)-6-(2,6-difluoro-3-(2-hydroxyethoxy)phenyl)-5-fluoropicolinamide] — 1.8-fold lower, 12 nM
- C[C@@H]1C[C@H](N)C[C@H](c2ccncc2NC(=O)c2ccc(F)c(-c3c(F)cc([C@@H](C)O)cc3F)n2)C1 [Example 74, N-(4-((1R,3S,5S)-3-amino-5-methylcyclohexyl)pyridin-3-yl)-6-(2,6-difluoro-4-((R)-1-hydroxyethyl)phenyl)-5-fluoropicolinamide] — within 1.5-fold, 15 nM
- C[C@H]1C[C@@H](c2ccncc2NC(=O)c2ccc(F)c(-c3c(F)cc(C4CC4)cc3F)n2)C[C@@H](N)[C@@H]1O [Example 72, N-(4-((1R,3R,4R,5S)-3-amino-4-hydroxy-5-methylcyclohexyl)pyridin-3-yl)-6-(4-cyclopropyl-2,6-difluorophenyl)-5-fluoropicolinamide] — 6.6-fold higher, 139 nM
- C[C@@H]1C[C@H](N)C[C@H](c2ccncc2NC(=O)c2ccc(F)c(-c3c(F)cc(CN4CCCC4=O)cc3F)n2)C1 [Example 144, N-(4-((1R,3S,5S)-3-amino-5-methylcyclohexyl)pyridin-3-yl)-6-(2,6-difluoro-4-((2-oxopyrrolidin-1-yl)methyl)phenyl)-5-fluoropicolinamide] — 2.6-fold higher, 55 nM
- Cc1cc(F)c(-c2nc(C(=O)Nc3cnccc3[C@H]3C[C@@H](N)[C@H](O)[C@@H](C)C3)ccc2F)c(F)c1 [Example 4, N-(4-((1R,3R,4R,5S)-3-amino-4-hydroxy-5-methylcyclohexyl)pyridin-3-yl)-6-(2,6-difluoro-4-methylphenyl)-5-fluoropicolinamide] — 3.3-fold higher, 70 nM
- N[C@H]1CCC[C@@H](c2ccncc2NC(=O)c2ccc(F)c(-c3c(F)cc(OC4CCOCC4)cc3F)n2)C1 [Example 150, N-(4-((1R,3S)-3-aminocyclohexyl)pyridin-3-yl)-6-(2,6-difluoro-4-(tetrahydro-2H-pyran-4-yloxy)phenyl)-5-fluoropicolinamide] — 15-fold higher, 324 nM
- C[C@@H]1C[C@H](N)C[C@H](c2ccncc2NC(=O)c2ccc(F)c(-c3c(F)cc(C(C)(C)O)cc3F)n2)C1 [Example 236, N-(4-((1R,3S,5S)-3-amino-5-methylcyclohexyl)pyridin-3-yl)-6-(2,6-difluoro-4-(2-hydroxypropan-2-yl)phenyl)-5-fluoropicolinamide] — 1.6-fold lower, 13 nM
- C[C@H]1C[C@@H](c2ccncc2NC(=O)c2ccc(F)c(-c3c(F)cc(C(C)(C)C(=O)O)cc3F)n2)C[C@@H](N)[C@@H]1O [Example 182, 2-(4-(6-(4-((1R,3R,4R,5S)-3-amino-4-hydroxy-5-methylcyclohexyl)pyridin-3-ylcarbamoyl)-3-fluoropyridin-2-yl)-3,5-difluorophenyl)-2-methylpropanoic acid] — higher, > 10000 nM
- C[C@H]1C[C@@H](c2ccncc2NC(=O)c2ccc(F)c(-c3c(F)cc(C4(O)CC4)cc3F)n2)C[C@@H](N)[C@@H]1O [Example 158, N-(4-((1R,3R,4R,5S)-3-amino-4-hydroxy-5-methylcyclohexyl)pyridin-3-yl)-6-(2,6-difluoro-4-(1-hydroxycyclopropyl)phenyl)-5-fluoropicolinamide] — 3-fold higher, 64 nM
- CSc1cc(F)c(-c2nc(C(=O)Nc3cnccc3[C@@H]3C[C@H](C)C[C@H](N)C3)ccc2F)c(F)c1 [Example 223, N-(4-((1R,3S,5S)-3-amino-5-methylcyclohexyl)pyridin-3-yl)-6-(2,6-difluoro-4-(methylthio)phenyl)-5-fluoropicolinamide] — 8-fold higher, 169 nM
- C[C@H]1C[C@@H](c2ccncc2NC(=O)c2ccc(F)c(-c3c(F)cc(S(C)(=O)=O)cc3F)n2)C[C@@H](N)[C@@H]1O [Example 14, N-(4-((1R,3R,4R,5S)-3-amino-4-hydroxy-5-methylcyclohexyl)pyridin-3-yl)-6-(2,6-difluoro-4-(methylsulfonyl)phenyl)-5-fluoropicolinamide] — 69-fold higher, 1440 nM
- COCCOc1cc(F)c(-c2nc(C(=O)Nc3cnccc3[C@@H]3CCC[C@H](N)C3)ccc2F)c(F)c1 [Example 151, N-(4-((1R,3S)-3-aminocyclohexyl)pyridin-3-yl)-6-(2,6-difluoro-4-(2-methoxyethoxy)phenyl)-5-fluoropicolinamide] — 16-fold higher, 340 nM
- N[C@H]1CCC[C@@H](c2ccncc2NC(=O)c2ccc(F)c(-c3c(F)cc(C4(O)CCCC4)cc3F)n2)C1 [Example 162, N-(4-((1R,3S)-3-aminocyclohexyl)pyridin-3-yl)-6-(2,6-difluoro-4-(1-hydroxycyclopentyl)phenyl)-5-fluoropicolinamide] — 5.8-fold higher, 122 nM
- CCc1cc(F)c(-c2nc(C(=O)Nc3cnccc3[C@H]3C[C@@H](N)[C@H](O)[C@@H](C)C3)ccc2F)c(F)c1 [Example 39, N-(4-((1R,3R,4R,5S)-3-amino-4-hydroxy-5-methylcyclohexyl)pyridin-3-yl)-6-(4-ethyl-2,6-difluorophenyl)-5-fluoropicolinamide] — 2.6-fold higher, 55 nM
- COc1cc(F)c(-c2nc(C(=O)Nc3cnccc3[C@H]3C[C@@H](N)[C@H](O)[C@@H](C)C3)ccc2F)c(F)c1 [Example 5, N-(4-((1R,3R,4R,5S)-3-amino-4-hydroxy-5-methylcyclohexyl)pyridin-3-yl)-6-(2,6-difluoro-4-methoxyphenyl)-5-fluoropicolinamide] — 3-fold higher, 62 nM
- C[C@@H]1C[C@H](N)C[C@H](c2ccncc2NC(=O)c2ccc(F)c(-c3c(F)cc(C(F)F)cc3F)n2)C1 [Example 57, N-(4-((1R,3S,5S)-3-amino-5-methylcyclohexyl)pyridin-3-yl)-6-(4-(difluoromethyl)-2,6-difluorophenyl)-5-fluoropicolinamide] — 2-fold higher, 42 nM
- CSc1cc(F)c(-c2nc(C(=O)Nc3cnccc3[C@H]3C[C@@H](N)[C@H](O)[C@@H](C)C3)ccc2F)c(F)c1 [Example 36, N-(4-((1R,3R,4R,5S)-3-amino-4-hydroxy-5-methylcyclohexyl)pyridin-3-yl)-6-(2,6-difluoro-4-(methylthio)phenyl)-5-fluoropicolinamide] — 5.1-fold higher, 107 nM
- CSc1cc(F)c(-c2nc(C(=O)Nc3cnccc3[C@H]3C[C@@H](N)[C@@H](O)[C@@H](C)C3)ccc2F)c(F)c1 [Example 19, N-(4-((1R,3R,4S,5S)-3-amino-4-hydroxy-5-methylcyclohexyl)pyridin-3-yl)-6-(2,6-difluoro-4-(methylthio)phenyl)-5-fluoropicolinamide] — 3.5-fold higher, 74 nM
